Assay results taken from patent publication US20130108565A1, “TANNING ENHANCERS AND SELF-TANNING SUBSTANCES” (MERCK PATENT GESELLSCHAFT MIT BESCHRANKTER HAFTUNG, priority 2010, published 2013).
Values joined by “and” are separate entries in the source; they are usually repeats but may differ in a detail not shown here. Identical values can stand only once.

Columns and labels:
[1] = system: B16V mouse melanoma cells; test: B16 V mouse melanoma cell test: melanin concentration after alpha-MSH stimulation; type: cell-based; details: for Relative melanin concentration (%): DMSO (0.1%) + α-MSH 10^-8 M, relative to blank DMSO + α-MSH = 100%
Description: Description of the performance of the B16 V mouse melanoma cell test:
B16V mouse melanoma cells (manufacturer: DSMZ; Article No.: ACC370) in RPMI medium (Invitrogen, Article No.: 31870), to which 10% of FBS (foetal bovine serum, Invitrogen, Article No: 10499044), 2 mM L-glutamine (Invitrogen, Article No: 25030) and 1 mM sodium pyruvate (Invitrogen, Article No: 11360) had additionally been added (modified RPMI medium), are transferred into a culture bottle and incubated at 37° C. and 5% CO2 for 72 h. The medium is separated off, and the cells are washed with 10 ml of D-PBS (Invitrogen, Article No. 14190) and subsequently filtered off with suction. 1 ml of HyQtase cell detachment solution (Hyclone, Article No. SV30030.01) is added to the cells. The bottle is swirled a number of times, and the HyQtase cell detachment solution is subsequently removed by suction. The cells are then incubated in the incubator at 37° C. and 5% CO2for 5 min. The cells are taken up in the modified RPMI medium (Invitrogen, Article No.: 31870), and the cell count is determined. To this end, the cells are stained with Tryptan Blue and counted in a Neubauer chamber. The cells are subsequently sown out again in the modified RPMI medium in a defined cell count of 80,000 cells per well (6-well clear plate, TCT, PS (Nunc)).
The plate is subsequently incubated at 37° C. and 5% CO2 for 24 h, the medium is then removed. 1980 μl of the isomaltulose dilution are subsequently added. For this substance dilution, the isomaltulose is dissolved in DMSO and subsequently filtered through a sterile filter (0.2 μm, Millipore, Article No. SLLG013SL). The solution is then diluted with the modified RPMI medium (in this case the FBS content in the RPMI medium is only 5%) in such a way that the isomaltulose concentration is 1 mM or 5 mM. 20 μl of an alpha-MSH solution in DMSO (alpha-melanocyte-stimulating hormone=alpha-MSH) (DMSO, Sigma, Article No.:D2650) are then added, so that the alpha-MSH concentration in the well is 10^−8 M. The plate is subsequently incubated again at 37° C. and 5% CO2 for 24 h. […]
After the final incubation period, the medium is removed by suction, and the cells are washed with 1000 μl of D-PBS (Invitrogen, Article No. 14190). […] The cell count is subsequently determined. To this end, the cells are stained with Tryptan Blue and counted in a Neubauer chamber. […] 200 μl are then pipetted as quadruple determination (per cup) into a 96-well plate (VWR, Article No. 4100636981), and the absorption at a wavelength of 405 nm is determined. […] The content of melanin can be determined in this way by means of a calibration line.
The other values were determined relative to the blank sample with dimethyl sulfoxide (DMSO) and α-MSH, whose measurement was set at 100%

[2] = system: explants from the stomach tissue of a pale-skinned person; test: Ex-vivo study: chromametric colour measurement (L, a, b) of skin explants; set-up: species or system human; key to a / b: CIE L*a*b* colour coordinates (Minolta CR-300, D65); details: for L / a / b: n=3, listed as P2
Description: 12 explants from the stomach tissue of a pale-skinned person (type) having an average diameter of 10 mm are prepared (reference: […]-AB49). The explants are kept in a BEM medium (BIO-EC's explants medium) at 37° C. in a moist atmosphere comprising 5% of CO2. The following samples are tested: (in each case 3 explants), where the solutions of the corresponding substances used comprise 90% of water and 10% of ethanol. […] 2 μl of the respective sample are added to the explants and distributed for the first time (DO), 1 day later (D1), 2 days later (D2), 3 days later (D3) and 4 days later (D4). The colour of the explants is determined chromametrically. The measurements are carried out on addition (DO), on day 1 (D1), on day 5 (D5) and on day 11 (D11). The colour measurements are carried out using a Minolta CR-300 Chroma-meter, and the L, a and b values are read off correspondingly on the instrument. […] A colour area is present here which is viewed at a viewing angle of 2 degrees. This viewing angle is used as standard in the chromametric measurement. • Irradiation source D65, corresponding to daylight • Region of the measurement: 3 mm • Parameters used: L* a* b* The sample is placed on the bearing rail with the epidermis facing downwards. The irradiation is carried out from the underside through the area indicated (3 mm). In the colorimetric determinations <L a b>, the L value determines the contrast of the skin. If the L value drops, the skin appears darker.

[3] = D0 (on addition), single explant values
[4] = D1, 2 μl sample applied D0-D4, single explant values
[5] = D5, 2 μl sample applied D0-D4, single explant values
[6] = D11, 2 μl sample applied D0-D4, single explant values
[7] = in comparison with the untreated sample

SMILES | Relative melanin concentration (%) ([1]; 1 mM) | Relative melanin concentration (%) ([1]; 5 mM) | melanin production ([1]; cell culture tests with B16V mouse melanoma cells) | L [2, 3] | a [2, 3] | b [2, 3] | L [2, 4] | a [2, 4] | b [2, 4] | L [2, 5] | a [2, 5] | b [2, 5] | L [2, 6] | a [2, 6] | b [2, 6] | skin darkness (L values) [2, 7] | skin shade, red-brown shift (a value) [2, 7]
OC[C@H]1O[C@H](OC[C@H]2OC(O)(CO)[C@@H](O)[C@@H]2O)[C@H](O)[C@@H](O)[C@@H]1O (stereo partly drawn) [isomaltulose, α-D-glucopyranose-(1→6)-D-fructose (open, α- or (β-form) (isomaltulose)] | 65.0 | 58.1 | reduces melanin production | 62.89 and 62.96 and 61.62 | 2.75 and 2.19 and 3.28 | 15.88 and 18.71 and 18.43 | 63.09 and 64.04 and 62.97 | 3.72 and 2.1 and 3.32 | 16.05 and 17.73 and 17.92 | 63.79 and 62.89 and 63.61 | 2.57 and 2.67 and 3.26 | 14.33 and 17.15 and 16.3 | 65.69 and 59.72 and 60.71 | 2.41 and 3.44 and 3.59 | 12.35 and 11.35 and 11.57 | darkening of the skin | more natural skin shade
O=c1cc(CO)occ1O [kojic acid, reference compound] | 71.4 |  |  |  |  |  |  |  |  |  |  |  |  |  |  |  | 
